Series [1] in a line: In vivo mass balance study (urinary and faecal recovery) in mice. Conditions: mouse, in vivo; for dose excreted at 24 h: total radioactivity. Here is the method: Each mouse was then placed in a metabolic cage for 24 h, along with food and water, and the urine and faeces were collected. The metabolic cage was washed several times, after which 100 μL aliquots of diluted urine and faeces was placed in separate vials. Radioactivity measurements were then performed as described previously. All animal procedures were approved by the Institutional Animal Care and Use Committee at the University of Michigan, Ann Arbor.

The target of the next series is T1, OATP1A2 (Homo sapiens, UniProt P46721).
T1 sequence (P46721 1-670): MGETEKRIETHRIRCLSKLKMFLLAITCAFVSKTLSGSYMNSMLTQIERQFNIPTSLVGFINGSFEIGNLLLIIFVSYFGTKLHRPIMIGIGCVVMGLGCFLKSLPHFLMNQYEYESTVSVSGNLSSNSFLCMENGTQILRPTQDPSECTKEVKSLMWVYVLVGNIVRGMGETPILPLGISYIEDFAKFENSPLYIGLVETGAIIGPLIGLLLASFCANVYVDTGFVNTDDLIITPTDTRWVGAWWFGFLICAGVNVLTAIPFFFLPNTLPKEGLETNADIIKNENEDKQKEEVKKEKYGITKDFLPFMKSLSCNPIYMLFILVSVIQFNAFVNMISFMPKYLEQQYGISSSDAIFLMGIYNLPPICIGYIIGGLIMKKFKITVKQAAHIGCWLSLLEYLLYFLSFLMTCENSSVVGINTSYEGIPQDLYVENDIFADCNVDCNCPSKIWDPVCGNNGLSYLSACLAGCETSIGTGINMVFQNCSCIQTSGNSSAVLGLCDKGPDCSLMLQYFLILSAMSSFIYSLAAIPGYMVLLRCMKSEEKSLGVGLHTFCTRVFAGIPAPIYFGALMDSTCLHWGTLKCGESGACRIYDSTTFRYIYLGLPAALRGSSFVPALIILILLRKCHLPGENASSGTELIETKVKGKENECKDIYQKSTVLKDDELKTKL
In words: Inhibition of prototypical substrate (E3S) uptake by TCMCB07 in HEK293/OATP1A2 cells. The series is classed as in vitro ADME. On the set-up: host or cells: HEK293.

For a further series, the target named is T2, human P‐gp (ABCB1, MDR1) (Homo sapiens, UniProt P08183).
T2 construct: host or cells: MDCKII
T2 sequence (P08183 whole entry): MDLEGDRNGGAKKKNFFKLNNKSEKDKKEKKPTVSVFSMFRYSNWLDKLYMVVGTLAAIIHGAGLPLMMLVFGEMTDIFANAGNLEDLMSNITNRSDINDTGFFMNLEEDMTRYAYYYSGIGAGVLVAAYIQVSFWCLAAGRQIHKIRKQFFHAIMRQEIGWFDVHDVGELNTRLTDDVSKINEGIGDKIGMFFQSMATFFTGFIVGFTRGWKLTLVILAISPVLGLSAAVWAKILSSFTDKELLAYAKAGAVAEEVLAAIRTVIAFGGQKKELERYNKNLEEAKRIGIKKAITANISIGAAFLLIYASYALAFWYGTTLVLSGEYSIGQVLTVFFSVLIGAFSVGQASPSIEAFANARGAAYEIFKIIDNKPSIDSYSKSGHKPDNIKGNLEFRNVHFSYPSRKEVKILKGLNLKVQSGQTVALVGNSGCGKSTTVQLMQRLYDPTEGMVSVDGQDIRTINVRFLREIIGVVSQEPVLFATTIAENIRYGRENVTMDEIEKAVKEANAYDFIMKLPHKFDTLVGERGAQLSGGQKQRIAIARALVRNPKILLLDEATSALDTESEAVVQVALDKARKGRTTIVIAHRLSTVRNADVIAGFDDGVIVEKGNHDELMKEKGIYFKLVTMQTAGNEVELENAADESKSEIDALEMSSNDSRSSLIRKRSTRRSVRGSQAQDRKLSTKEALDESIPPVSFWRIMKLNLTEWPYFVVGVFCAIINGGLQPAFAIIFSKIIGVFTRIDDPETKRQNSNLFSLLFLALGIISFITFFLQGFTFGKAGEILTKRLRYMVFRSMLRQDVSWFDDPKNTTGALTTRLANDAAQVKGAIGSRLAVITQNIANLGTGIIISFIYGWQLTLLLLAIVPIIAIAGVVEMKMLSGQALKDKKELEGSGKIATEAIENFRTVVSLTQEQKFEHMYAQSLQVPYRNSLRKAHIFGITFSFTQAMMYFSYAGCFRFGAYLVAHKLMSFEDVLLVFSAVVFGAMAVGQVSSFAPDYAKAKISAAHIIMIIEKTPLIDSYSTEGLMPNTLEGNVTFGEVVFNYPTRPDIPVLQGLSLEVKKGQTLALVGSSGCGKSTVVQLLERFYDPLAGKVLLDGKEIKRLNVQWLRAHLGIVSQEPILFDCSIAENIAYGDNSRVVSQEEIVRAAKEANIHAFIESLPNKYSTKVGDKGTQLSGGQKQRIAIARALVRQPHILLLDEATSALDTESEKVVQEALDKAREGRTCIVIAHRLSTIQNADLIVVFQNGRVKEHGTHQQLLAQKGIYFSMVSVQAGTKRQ
In words: Transepithelial transport of digoxin (±TCMCB07) in MDCKII/MDR1 cells. Format: in vitro ADME. Here is the method:
Cells were then washed three times, each with 0.5 mL pre‐warmed HBSS buffer. […] The cells were then incubated for various times up to 60 min. […] At the designated times, 15 μL of apical buffer and 50 μL of basolateral buffer were sampled. Once all the samples were collected, 0.5 mL of ice‐cold HBSS buffer was added to the well to stop transport after which the cells were rinsed three times with 0.5 mL of ice‐cold HBSS. The filters with monolayers were then detached from the chamber and placed in a scintillation vial, and the cells were lysed with 0.33 mL hyamine hydroxide.
The permeability of digoxin and rosuvastatin (prototypical substrates for MDR1 and BCRP, respectively) was determined by the following ^18 : (4) Papp=CR·VR/CD^o·A·∆Δt, where Papp is the apparent permeability, CR is the concentration of substrate in the receiver chamber, CD^o is the concentration of substrate in the donor chamber at time zero, VR is the volume of buffer in the receiver chamber, A is the surface area of the insert filter membrane, and ∆t is the time over which permeability is measured.

The target of another series is T3, OAT1 (Homo sapiens, UniProt Q4U2R8).
T3 construct: host or cells: HEK293
T3 sequence (Q4U2R8 1-563): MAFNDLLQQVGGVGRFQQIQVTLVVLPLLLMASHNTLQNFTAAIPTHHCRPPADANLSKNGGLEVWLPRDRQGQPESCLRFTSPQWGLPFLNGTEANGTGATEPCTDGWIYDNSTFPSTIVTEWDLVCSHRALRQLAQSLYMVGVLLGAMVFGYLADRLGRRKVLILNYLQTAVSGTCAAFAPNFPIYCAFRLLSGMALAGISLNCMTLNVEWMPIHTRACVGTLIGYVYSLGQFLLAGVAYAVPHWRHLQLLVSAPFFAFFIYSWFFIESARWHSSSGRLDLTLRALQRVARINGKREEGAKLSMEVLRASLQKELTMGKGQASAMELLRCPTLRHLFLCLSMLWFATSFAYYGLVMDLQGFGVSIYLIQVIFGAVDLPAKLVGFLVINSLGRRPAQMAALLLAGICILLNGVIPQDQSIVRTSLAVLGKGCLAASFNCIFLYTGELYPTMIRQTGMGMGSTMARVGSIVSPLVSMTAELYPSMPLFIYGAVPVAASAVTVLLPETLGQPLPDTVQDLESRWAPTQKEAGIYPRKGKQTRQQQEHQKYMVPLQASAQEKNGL
As to the kind of experiment: Inhibition of prototypical substrate (PAH) uptake by TCMCB07 in HEK293/OAT1 cells. Format: in vitro ADME. Conditions: substrate 1.0 μM [14C]PAH, 5.0 min, up to 1000 μM TCMCB07.

The next series has as its target T4, OATP2B1 (Homo sapiens, UniProt O94956).
T4 construct: host or cells: HEK293
T4 sequence (O94956 1-709): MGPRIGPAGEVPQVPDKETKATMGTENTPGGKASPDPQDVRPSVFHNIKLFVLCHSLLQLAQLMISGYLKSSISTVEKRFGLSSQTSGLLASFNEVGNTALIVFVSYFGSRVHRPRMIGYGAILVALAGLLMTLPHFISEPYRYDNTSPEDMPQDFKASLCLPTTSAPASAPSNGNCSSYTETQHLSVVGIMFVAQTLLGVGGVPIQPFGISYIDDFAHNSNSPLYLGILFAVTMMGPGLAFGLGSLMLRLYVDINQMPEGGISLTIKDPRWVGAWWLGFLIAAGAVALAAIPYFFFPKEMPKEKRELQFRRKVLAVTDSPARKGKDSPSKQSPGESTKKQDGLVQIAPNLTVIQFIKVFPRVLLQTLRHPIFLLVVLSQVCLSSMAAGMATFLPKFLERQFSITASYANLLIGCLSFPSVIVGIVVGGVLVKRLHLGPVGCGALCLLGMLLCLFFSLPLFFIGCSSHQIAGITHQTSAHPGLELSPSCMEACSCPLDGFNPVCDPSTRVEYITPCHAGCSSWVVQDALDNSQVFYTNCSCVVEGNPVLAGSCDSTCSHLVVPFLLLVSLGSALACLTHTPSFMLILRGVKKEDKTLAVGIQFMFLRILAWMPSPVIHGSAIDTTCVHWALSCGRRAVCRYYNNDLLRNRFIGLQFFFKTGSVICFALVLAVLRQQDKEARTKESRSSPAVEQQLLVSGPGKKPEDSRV
As to the kind of experiment: Inhibition of prototypical substrate (E3S) uptake by TCMCB07 in HEK293/OATP2B1 cells. The series is classed as in vitro ADME.

Molecules are shown by their SMILES. Bridge positions count the residues as written; N and C are the ends. Square brackets hold non-standard residues; d marks the D form. Peptide text beside a SMILES is read from it. d2Nal = N[C@H](Cc1ccc2ccccc2c1)C(=O)O; Nle = CCCC[C@H](N)C(=O)O

Experimental for OAT1: (§1) Cells were then washed three times × 1.0 mL each with pre‐warmed Hank's Balanced Salt Solution (HBSS) buffer. A 0.5 mL aliquot of uptake buffer [HBSS plus 10 mM 4‐(2‐hydroxyethyl)‐1‐piperazineethanesulfonic acid (HEPES), pH 7.4], containing the radiolabelled prototypical substrate and mannitol, was then incubated for various times up to 60 min to determine the optimal incubation time for subsequent experiments (i.e. time of sampling during linear uptake conditions). At the designated times, 1.0 mL of ice‐cold HBSS buffer was added to stop uptake after which the cells were rinsed three times with 1.0 mL with ice‐cold HBSS. Hyamine hydroxide (0.33 mL) was then added to each well to lyse the cells. The cells were transferred into a scintillation vial and mixed with 6.0 mL of cytosine scintillation cocktail. Radioactivity of the solubilized cells was determined with a dual‐channel liquid scintillation counter (Beckman LS 6000; Beckman Coulter Inc., Fullerton, CA) and the protein quantified by a bicinchoninic acid protein assay kit (Pierce Biotechnology; Rockford, IL).
Experimental for OATP1A2: as §1
Mock and transfected cells (250 000 cells/well) were seeded onto BioCoat poly‐D‐lysine 24 well plates (Corning Inc.) and cultured for 2 days as described previously for the other OATPs. […] Radioactivity and protein measurements were then performed as described previously.
Experimental for OATP2B1: as §1

As for `CCCC[C@H](NC(C)=O)C(=O)N[C@H]1CC(=O)NCCCC[C@@H](C(=O)N[C@@H](C(=O)N2CCC[C@@H]2C(N)=O)C(C)C)NC(=O)[C@H](Cc2c[nH]c3ccccc23)NC(=O)[C@H](CCCN=C(N)N)NC(=O)[C@@H](Cc2ccc3ccccc3c2)NC(=O)[C@@H]2CCCN2C1=O` [TCMCB07, Ac‐Nle‐c[Asp‐Pro‐dNal2′‐Arg‐Trp‐Lys]‐dVal‐dPro‐NH2] (Ac-[Nle]DP[d2Nal]RWK[dV][dP]-NH2; lactam 2-7), in series [1], the oral absorption is listed as 24.2%. Besides, the dose excreted at 24 h in series [1] (iv, 23.3 mg/kg, % Urinary recovery, intravenous TCMCB07) is 14%; in series [1] (iv, faecal (biliary) share of total recovery (faeces/(urine + faeces))), 76%; in series [1] (po, 23.3 mg/kg, % Urinary recovery, oral TCMCB07), 5%; in series [1] (po, faecal share of total recovery (faeces/(urine + faeces))), 95%. Further, the IC50 against OATP1A2 was 24 ± 2.8 µM; on OAT1 it was “could not be determined”; against OATP2B1, 524 ± 83 µM. Also, the “decrease of MDR1‐mediated permeability of digoxin, A to B direction” value at human P‐gp (ABCB1, MDR1) (in the presence of 500 μM TCMCB07, decreased by) came to 27%. The “increase of MDR1‐mediated permeability of digoxin, B to A direction” value at human P‐gp (ABCB1, MDR1) (in the presence of 500 μM TCMCB07, increased by) amounted to 68%. Besides, the “effect on P‐gp (MDR1)‐mediated permeability of prototypical substrate” value at human P‐gp (ABCB1, MDR1) (transfected cells, 500 μM TCMCB07) is recorded as “did not affect”.

For orientation: IC50 means the point on the concentration scale where inhibition reaches its midpoint. Higher therefore signals weaker potency in that assay.

These data come from publication PMC7749613 (Journal of Cachexia, Sarcopenia and Muscle, 2020).
